This is an account of results in publication PMC4909640 (EBioMedicine, 2016).

SMILES strings stand for the structures.

In the experiment the test system is enteroendocrine proglucagon-containing cells (L-cells). The settings on record: perfused mouse proximal small intestine, n = 4; basal to peak; P < 0.001.

As for `[Cl-].[K+]` [KCl], the “increase of GLP-1 secretion during infusion” value is on record as ~ 10 fold and the “increase of oxyntomodulin secretion during infusion” value was ~ 9 fold.
